{
  "source": "patent US20250230193A1",
  "about": "“CYCLIC COMPOUND HAVING SELECTIVE KRAS INHIBITORY EFFECT ON HRAS AND NRAS” (CHUGAI SEIYAKU KABUSHIKI KAISHA, priority 2022, published 2025)",
  "key": {"[1]": {"biological_target": "GDP-bound NRAS wild-type protein (Homo sapiens, UniProt P01111)", "sequence (P01111 whole entry)": "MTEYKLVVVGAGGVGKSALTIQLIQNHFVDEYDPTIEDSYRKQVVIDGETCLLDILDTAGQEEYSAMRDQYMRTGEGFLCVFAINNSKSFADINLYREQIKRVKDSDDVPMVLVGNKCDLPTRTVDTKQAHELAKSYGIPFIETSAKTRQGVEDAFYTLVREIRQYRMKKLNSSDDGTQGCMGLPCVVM", "experiment": "Binding to NRAS by surface plasmon resonance (SPR), Single Cycle Kinetics", "conditions": "for NRAS/KRAS (ratio of KD value with respect to GDP-bound NRAS wild-type protein to KD value with respect to KRAS): class symbols"}, "[2]": {"biological_target": "GDP-bound HRAS wild-type protein (Homo sapiens, UniProt P01112)", "sequence (P01112 whole entry)": "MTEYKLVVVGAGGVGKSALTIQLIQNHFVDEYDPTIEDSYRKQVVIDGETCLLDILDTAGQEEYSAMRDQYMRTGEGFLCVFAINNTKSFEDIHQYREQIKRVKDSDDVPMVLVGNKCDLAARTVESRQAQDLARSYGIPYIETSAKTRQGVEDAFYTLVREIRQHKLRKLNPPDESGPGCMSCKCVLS", "experiment": "Binding to HRAS by surface plasmon resonance (SPR), Single Cycle Kinetics", "conditions": "for HRAS/KRAS (ratio of KD value with respect to GDP-bound HRAS wild-type protein to KD value with respect to KRAS): class symbols"}, "[3]": {"conditions": "SPR, GDP-bound NRAS wild-type vs GDP-bound KRAS wild-type"}, "[4]": {"conditions": "SPR, GDP-bound HRAS wild-type vs GDP-bound KRAS wild-type"}, "[5]": {"conditions": "KD ratio, GDP-bound NRAS wild-type vs GDP-bound KRAS wild-type, SPR"}, "[6]": {"conditions": "KD ratio, GDP-bound HRAS wild-type vs GDP-bound KRAS wild-type, SPR"}},
  "note": "Where a SMILES comes first, the peptide text is derived from it. Bridges are numbered along the chain shown (N, C = ends). [ ]: non-standard residue; d: D form. The star is where a group is joined. hPhe(3-Cl-4-CF3) = N[C@@H](CCc1ccc(C(F)(F)F)c(Cl)c1)C(=O)O; NPrPhe(4-CF3) = CCCN[C@@H](Cc1ccc(C(F)(F)F)cc1)C(=O)O; NMeGly(cPent) = CN[C@H](C(=O)O)C1CCCC1; NMeD = CN[C@@H](CC(=O)O)C(=O)O; NMeL = CN[C@@H](CC(C)C)C(=O)O; Morpholide = C1CN(*)CCO1; Ac5c = NC1(C(=O)O)CCCC1; Aze = O=C(O)[C@@H]1CCN1; Sar = CNCC(=O)O",
  "data": [
    {"molecule": "CCCN1C(=O)CN(C)C(=O)[C@@H]2CCN2C(=O)[C@H]([C@@H](C)CC)NC(=O)[C@H](CC(C)C)N(C)C(=O)C[C@@H](C(=O)N2CCOCC2)N(C)C(=O)[C@H](C2CCCC2)N(C)C(=O)C2(CCCC2)NC(=O)[C@@H]2CCCN2C(=O)[C@H](CCc2ccc(C(F)(F)F)c(Cl)c2)NC(=O)CN(C)C(=O)[C@@H]1Cc1ccc(C(F)(F)F)cc1", "note": "[PP0158] ([NMeL]I[Aze][Sar][NPrPhe(4-CF3)][Sar][hPhe(3-Cl-4-CF3)]P[Ac5c][NMeGly(cPent)][NMeD]-Morpholide; lactam N-11)", "values": [
      {"measurement": "NRAS/KRAS (ratio of KD for GDP-bound NRAS wild-type to KD for KRAS)", "setting": "[1]; KD ratio NRAS/KRAS, SPR", "value": "A (a compound having 10 or more and less than 20 is denoted as A)"},
      {"measurement": "HRAS/KRAS (ratio of KD for GDP-bound HRAS wild-type to KD for KRAS)", "setting": "[2]; KD ratio HRAS/KRAS, SPR", "value": "B (a compound having 3 or more and less than 10 is denoted as B)"}
    ]},
    {"molecule": "CCC[C@H]1C(=O)N[C@@H]([C@@H](C)CC)C(=O)N(C)CC(=O)N(C)[C@H]2C/C=C\\CCN(C2=O)[C@@H](Cc2ccc(C)cc2)C(=O)N(C)CC(=O)N[C@@H](CCc2ccc3c(C)cn(C)c3c2)C(=O)N2C[C@H](OCC)C[C@H]2C(=O)NC2(CC(C)(C)C2)C(=O)N(C)[C@@H](C(CC)CC)C(=O)N(C)[C@H](C(=O)N(C)C)CC(=O)N1C", "note": "[PP2910]", "values": [
      {"measurement": "NRAS/KRAS (ratio of KD value with respect to GDP-bound NRAS wild-type protein to KD value with respect to KRAS)", "setting": "[1]; KD ratio NRAS/KRAS", "value": "AA (a compound having 20 or more is denoted as AA)"},
      {"measurement": "HRAS/KRAS (ratio of KD value with respect to GDP-bound HRAS wild-type protein to KD value with respect to KRAS)", "setting": "[2]; KD ratio HRAS/KRAS", "value": "A (a compound having 10 or more and less than 20 is denoted as A)"}
    ]},
    {"molecule": "CCCOC[C@H]1C(=O)N[C@@H]([C@@H](C)CC)C(=O)N(C)CC(=O)N(C)[C@H]2C/C=C\\CCN(C2=O)[C@@H](Cc2ccc(C)cc2)C(=O)N(C)CC(=O)N[C@@H](CCc2cc(F)c(C(F)(F)F)c(F)c2)C(=O)N2C[C@H](CC)C[C@H]2C(=O)NC2(CCCC2)C(=O)N(C)[C@@H](C2CCCC2)C(=O)N(C)[C@H](C(=O)N(C)C)CC(=O)N1C", "note": "[PP2218]", "values": [
      {"measurement": "NRAS/KRAS (ratio of KD value with respect to NRAS to KD value with respect to KRAS)", "setting": "[1]; [3]", "value": "A (a compound having 10 or more and less than 20 is denoted as A)"},
      {"measurement": "HRAS/KRAS (ratio of KD value with respect to HRAS to KD value with respect to KRAS)", "setting": "[2]; [4]", "value": "A (a compound having 10 or more and less than 20 is denoted as A)"}
    ]},
    {"molecule": "CCO[C@@H]1C[C@H]2C(=O)NC3(CC(C)(C)C3)C(=O)N(C)[C@@H](C(CC)CC)C(=O)N(C)[C@H](C(=O)N3CCCC3)CC(=O)N(C)[C@@H](COC)C(=O)N[C@@H]([C@@H](C)CC)C(=O)N(C)CC(=O)N(C)[C@H]3C/C=C\\CCN(C3=O)[C@@H](Cc3ccc(C(F)(F)F)cc3)C(=O)N(C)CC(=O)N[C@@H](CCc3ccc(C(F)(F)F)c(Cl)c3)C(=O)N2C1", "note": "[PP2128]", "values": [
      {"measurement": "NRAS/KRAS (ratio of KD value with respect to NRAS to KD value with respect to KRAS)", "setting": "[1]; [3]", "value": "AA (a compound having 20 or more is denoted as AA)"},
      {"measurement": "HRAS/KRAS (ratio of KD value with respect to HRAS to KD value with respect to KRAS)", "setting": "[2]; [4]", "value": "A (a compound having 10 or more and less than 20 is denoted as A)"}
    ]},
    {"molecule": "CCCOC[C@H]1C(=O)N[C@@H]([C@@H](C)CC)C(=O)N(C)CC(=O)N(C)[C@H]2C/C=C\\CCN(C2=O)[C@@H](Cc2ccc(C(F)(F)F)cc2)C(=O)N(C)CC(=O)N[C@@H](CCc2cc(F)c(C(F)(F)F)c(F)c2)C(=O)N2C[C@@H](C)C[C@H]2C(=O)NC2(CCC2)C(=O)N(C)[C@@H](C2CCCC2)C(=O)N(C)[C@H](C(=O)N(C)CCC)CC(=O)N1C", "note": "[PP2008]", "values": [
      {"measurement": "NRAS/KRAS (ratio of KD value for NRAS to KD value for KRAS)", "setting": "[1]; [5]", "value": "A (a compound having 10 or more and less than 20 is denoted as A)"},
      {"measurement": "HRAS/KRAS (ratio of KD value for HRAS to KD value for KRAS)", "setting": "[2]; [6]", "value": "A (a compound having 10 or more and less than 20 is denoted as A)"}
    ]},
    {"molecule": "CCO[C@@H]1C[C@H]2C(=O)NC3(CCC3)C(=O)N(C)[C@@H](C3CCCC3)C(=O)N(C)[C@H](C(=O)N(C)C)CC(=O)N(C)[C@@H](CC)C(=O)N[C@@H]([C@@H](C)CC)C(=O)NCC(=O)N(C)[C@H]3C/C=C\\CCN(C3=O)[C@@H](Cc3ccc(C(F)(F)F)cc3)C(=O)N(C)CC(=O)N[C@@H](CCc3cc(F)c(C(F)(F)F)c(F)c3)C(=O)N2C1", "note": "[PP0983]", "values": [
      {"measurement": "NRAS/KRAS (ratio of KD value with respect to NRAS to KD value with respect to KRAS)", "setting": "[1]; [5]", "value": "A (a compound having 10 or more and less than 20 is denoted as A)"},
      {"measurement": "HRAS/KRAS (ratio of KD value with respect to HRAS to KD value with respect to KRAS)", "setting": "[2]; [6]", "value": "A (a compound having 10 or more and less than 20 is denoted as A)"}
    ]},
    {"molecule": "CCC[C@H]1C(=O)N[C@@H]([C@@H](C)CC)C(=O)N(C2CC2)CC(=O)N(C)[C@H]2C/C=C\\CCN(C2=O)[C@@H](Cc2ccc(C(F)(F)F)cc2)C(=O)N(C)CC(=O)N[C@@H](CCc2cc(F)c(C(F)(F)F)c(F)c2)C(=O)N2C[C@H](OCC)C[C@H]2C(=O)NC2(CC(C)(C)C2)C(=O)N(C)[C@@H](CC2CC2)C(=O)N(C)[C@H](C(=O)N(C)C)CC(=O)N1C", "note": "[PP2813]", "values": [
      {"measurement": "NRAS/KRAS (ratio of KD value with respect to GDP-bound NRAS wild-type protein to KD value with respect to KRAS)", "setting": "[1]; KD ratio NRAS/KRAS", "value": "AA (a compound having 20 or more is denoted as AA)"},
      {"measurement": "HRAS/KRAS (ratio of KD value with respect to GDP-bound HRAS wild-type protein to KD value with respect to KRAS)", "setting": "[2]; KD ratio HRAS/KRAS", "value": "A (a compound having 10 or more and less than 20 is denoted as A)"}
    ]}
  ]
}
